Experimental data: patent US8211463B2, “Use of glycolipids as adjuvants” (Helmholtz-Zentrum Fuer Infektionsforschung GmbH, priority 2006, dated 2012)

Legend:
[1] = system: spleen cells of immunized mice; test: Splenocyte proliferation ([3H]thymidine incorporation) after in vitro restimulation with β-Gal; assay type: in vivo, Balb/c mice; conditions: i.n.
Method: (§1) Co-administration of β-Gal with 10 μg glycolipids 1, 5 and 6 induced a strong cellular immune responses against the β-Gal antigen in Balb/c mice. Balb/c mice were immunized by the i.n. or s.c. route with β-Gal alone or together with glycolipids 1, 5 and 6 three times at 2-wk intervals. 10 days after the final immunization, the immunized mice were sacrificed. Splenocytes of mice immunized by the i.n. (A) and s.c. (B) route were collected and cultured with different concentrations of the β-Gal-Protein for 4 days. […] Curves represent [^3H]thymidine incorporation (counts per minute, cpm) and Stimulation index (SI) in each group. Each group consists of five mice. Data are representative of three separate experiments.
as §1, with “with 20 up to 30” for “with 10”, “glycolipids” for “glycolipids 1,”, “represent [3H]thymidine incorpoaration” for “represent [^3H]thymidine incorporation”
Experimental protocol: Spleens were removed and pooled for analysis of cellular immune responses. Cells were grown in RPMI 1640 supplemented with 10% fetal calf serum, 100 U/ml of penicillin, 50 μg/ml of streptomycin, 5×10^−5 M 2-mercaptoethanol and 1 mM L-glutamine (GIBCO BRL, Karlsruhe, Germany) and maintained at 37° C. in a humidified 5% CO2 atmosphere. Spleen cell suspensions were adjusted to 5×10^6 cells/ml in complete medium, cells were seeded with 100 μl per well in a flat-bottomed 96-well microtiter plate (Nunc) and plates were incubated for 4 days. Unstimulated spleen cells were incubated in the presence of different concentrations of the new adjuvants to analyze the in vitro stimulation capacity of glycolipids 1, 5 or 6, respectively. T cellmediated immune responses were investigated at day 38 by measuring the proliferation of cells recovered from spleens after in vitro restimulation with β-Gal. Said spleen cells were obtained from vaccinated mice—said mice where immunized as described in Example 2—and incubated in the presence of different concentrations of the soluble β-Gal antigen. Each concentration was tested in triplicates. During the final 18 h of culture, 1 μCi of [^3H]thymidine (Amersham International, Freiburg, Germany) was added to each well. Cells were then harvested on paper filters (Filtermat A; Wallac, Freiburg, Germany) by using a cell harvester (Inotech, Wohlen, Switzerland), and the amount of incorporated [^3H]thymidine into the DNA of proliferating cells was determined by a β-scintillation counter (Wallac 1450, Micro-Trilux). The results are expressed as the arithmetic mean of [^3H]thymidine uptake in cpm.

[2] = system: IFN-γ, IL-2, IL-4, IL-5, and TNFα; test: Cytometric bead array of cytokines in supernatants of restimulated spleen cells; assay type: in vivo, Balb/c mice; conditions: i.n., 10 μg glycolipid, restimulation with β-Gal antigen for 4 days
Method: Co-administration of β-Gal with 10 μg glycolipid 5 represented both Th1 and Th2 cytokine profiles activities in Balb/c mice. 10 days after the final immunization, the immunized Balb/c mice were sacrificed. A total of 5×10^6 cells/ml were stimulated with different concentrations of the β-Gal antigen for 4 days, and the levels of IFNγ and IL-4 in the supernatant were examined by the BD Cytometric bead array. Cytokine production of the spleen cells were analyzed using BD CBA kit according to the manufacturer's instructions. […] Curves represent cytokine concentration (pg/ml) and Stimulation index (SI) in response to enhanced antigen concentration in each group. Each group consists of five mice. Data are representative of two separate experiments.
To characterize the type of Th response stimulated following immunization, the content of IFN-γ, IL-2, IL-4, IL-5, and TNFα was measured in supernatants from in vitro re-stimulated spleen cells (FIGS. 8 and 9) by the Cytometric Bead Array. Culture supernatants from proliferating cells were collected on days 2 and 4, and stored at −70° C. Determinations of IFN-γ, TNFα, IL-2, IL-4, and IL-5 were performed by cytometric bead array analysis using the commercial kit from BectonDickinson, according to the manufacturer's instructions. […] The probes were analyzed subsequently by flow cytometry as described in the protocol of BD.

[3] = 10 μg glycolipid, restimulation with β-Gal for 4 days

## CCCCCCCCCCCCCCOCC(COCCCCCCCCCCCCCC)O[C@@H]1O[C@H](CO[C@H]2O[C@H](CO)[C@H](O)[C@H](O)[C@H]2O)[C@@H](O)[C@H](O)[C@H]1O [glycolipid 6, 1,3-di-O-tetradecyl-2-O-[6′-O-(α-D-galactopyranosyl)-β-D-glucopyranosyl]-sn-glycerol]
[1]; [3]
  Stimulation index (SI), [3H]thymidine incorporation of spleen cells: no effect
[1]; 20 up to 30 μg glycolipid, restimulation with β-Gal for 4 days
  Stimulation index (SI), [3H]thymidine incorporation of spleen cells: strong responses
[1]; highest concentration (30 μg per animal)
  Stimulation index (SI), [3H]thymidine incorporation of spleen cells: > 3

## CCCCCCCCCCCCCCOCC(COCCCCCCCCCCCCCC)O[C@@H]1O[C@H](CO)[C@@H](O[C@H]2O[C@H](CO)[C@@H](O)[C@H](O)[C@H]2O)[C@H](O)[C@H]1O [glycolipid 5, 1,3-Di-O-tetradecyl-2-O-[4′-O-(α-D-glucopyranosyl)-β-D-glucopyranosyl]-sn-glycerol]
[2]
  expression of proinflammatory (TNFα), Th1 (IFNγ and IL-2) and Th2 (IL-5) cytokines by spleen cells: enhanced expression

## CCCCCCCC/C=C\CCCCCCCCOCC(COCCCCCCCC/C=C\CCCCCCCC)O[C@@H]1O[C@H](CO)[C@@H](O[C@H]2O[C@H](CO)[C@@H](O)[C@H](O)[C@H]2O)[C@H](O)[C@H]1O (relative stereo) [glycolipid 1, 1,3-Di-O[cis-9-octadecenyl]-2-O-[4′-O-(α-D-glycopyranosyl)-β-D-glycopyranosyl]-sn-glycerol]
[1]; [3]
  Stimulation index (SI), [3H]thymidine incorporation of spleen cells: no effect
